From patent US20110182954A1, “ORALLY-ADMINISTERED AGENT” (LINTEC Corporation, priority 2008, published 2011) come the findings set out here.

This data set is described as follows: Viscosity of aqueous solution of constituent material (E-type viscometer). It counts as physicochemical. The note with it: for Water absorption promoter, Viscosity: aqueous solution of 5 mass % at 37° C., Examples 1-3, 7, 10-12 glycerin, other Examples the promoter other than glycerin; for Antiadhesive agent, Viscosity: aqueous solution of 5 mass % of the antiadhesive agent at 37° C. The protocol:
Tables 1 and 2 shown the constituent materials of the intestinal collapse-controlling layer, the gel-forming layer and the antiadhesive layer of the orally-administered agents obtained in the respective Examples and the respective Comparative Examples and the contents thereof. […] Furthermore, the viscosity of the water absorption promoter in the Table 1 and the viscosity of the antiadhesive agent in the Table 2 denote a viscosity at 37° C. of an aqueous solution of 5 mass % of the water absorption promoter and the antiadhesive agent, respectively. Each viscosity was measured with an E-type viscometer (a product of Tokimec, Inc.).

As to `OC[C@@H](O)[C@@H](O)[C@H](O)[C@H](O)CO` [Man, mannitol], the “Water absorption promoter, Viscosity” value is 0.87 mPa · s and the “Antiadhesive agent, Viscosity” value came out at 0.87 mPa · s.

`OC[C@@H](O)[C@H](O)[C@@H](O)CO` [Xyl, xylitol]: the “Water absorption promoter, Viscosity” value is 1.08 mPa · s and the “Antiadhesive agent, Viscosity” value worked out at 0.87 mPa · s.
